{
  "source": "patent US20130273196A1",
  "about": "“Pet Food Compositions for Inducing a Satiety Response” (HILL'S PET NUTRITION, INC, priority 2010, published 2013)",
  "key": {"NPY1R": {"test_system": "NPY1R", "test": "Affymetrix canine GeneChip gene expression analysis in canine cell lines, NPY1R", "assay_type": "cell-based", "conditions": "in two cell lines tested, amount tested 0.005 mg/mL, 0.025 mg/mL", "experimental": "Gene expression was analyzed using Affymetrix Canine 1 and Canine 2 GeneChip Arrays available commercially from Affymetrix, Inc., Santa Clara, Calif. 95051. Total RNA is reverse transcribed into cDNA. The cDNA is used to generate cRNA which is fragmented and used as probes for GeneChip hybridization. The gene chip is washed and the hybridization signal is measured with an Affymetrix laser scanner. The hybridization data is then validated and normalized for further analysis.\nMaterials: Affymetrix provided most of the reagents and kit. Other reagents listed in the Affymetrix Manual but not supplied in the kit were obtained separately. Refer to GeneChip Expression Analysis Technical Manual (701021 Rev. 4) for the details. […]\nAffymetrix canine gene chips Canine-1 and Canine-2 are used to determine the effect of various test substances or ingredients on gene expression in four canine cell lines and appropriate controls. […] Gene expression was measured for the treatment cell lines and controls. The gene expression data was determined to be either “up” or “down”-regulated for any given treatment. The decision on whether a gene is “up” or “down” is based on the fold change, which is calculated as treatment intensity/control intensity for each individual probe."}, "NPY5R": {"test_system": "NPY5R", "test": "Affymetrix canine GeneChip gene expression analysis in canine cell lines, NPY5R", "assay_type": "cell-based", "experimental": "Gene expression was analyzed using Affymetrix Canine 1 and Canine 2 GeneChip Arrays available commercially from Affymetrix, Inc., Santa Clara, Calif. 95051. Total RNA is reverse transcribed into cDNA. The cDNA is used to generate cRNA which is fragmented and used as probes for GeneChip hybridization. The gene chip is washed and the hybridization signal is measured with an Affymetrix laser scanner. The hybridization data is then validated and normalized for further analysis. Materials: Affymetrix provided most of the reagents and kit. Other reagents listed in the Affymetrix Manual but not supplied in the kit were obtained separately. Refer to GeneChip Expression Analysis Technical Manual (701021 Rev. 4) for the details. Equipment: Eppendorf Microcentrifuge, 1.5 mL DNase and RNase free/sterile microcentrifuge tubes, 50 mL DNase and RNase free/sterile disposable polypropylene tubes, P1000, […] and P2 Rainin Pipetman pipettes, Filter pipette tips for P1000, […] and P2 pipettes, DNase and RNase free/sterile, and Peltier Thermal Cycler PTC-200. Procedure: All procedures followed exactly as described in GeneChip Expression Analysis Technical Manual (Affymetrix Copyright 1999-2003). 5 micrograms of total RNA were used for the first strand cDNA synthesis. Used either Peltier Thermal Cycler PTC-200 or heat block for temperature control on reactions and probe denaturing. The quality control was performed using RNA NanoDrop chips with BioAnalyer 2100. Used 100 Format (Midi Array) for the canine genechip. […] The solvent at the higher of the two concentrations was used as a control. […] Gene expression was measured for the treatment cell lines and controls. The gene expression data was determined to be either “up” or “down”-regulated for any given treatment. The decision on whether a gene is “up” or “down” is based on the fold change, which is calculated as treatment intensity/control intensity for each individual probe."}},
  "data": [
    {"smiles": "CC/C=C\\C/C=C\\C/C=C\\C/C=C\\C/C=C\\CCCC(=O)O", "note": "[EPA]", "values": [
      {"measurement": "Fold change", "setting": "NPY1R", "result": "−1.43 (in two cell lines"},
      {"measurement": "Fold change", "setting": "NPY5R; in two cell lines tested, amount tested 0.005 mg/mL, 0.025 mg/mL", "result": "−1.82 (in two cell lines"}
    ]},
    {"smiles": "O=C(O[C@@H]1Cc2c(O)cc(O)cc2O[C@@H]1c1cc(O)c(O)c(O)c1)c1cc(O)c(O)c(O)c1", "note": "[Epigallocatechin Gallate, epigallocatechin gallate]", "values": [
      {"measurement": "Fold change", "setting": "NPY5R; in all cell lines tested, amount tested 20 ng/mL, 80 ng/mL, fold change = treatment intensity/control intensity", "result": "−1.33 (in all cell lines"}
    ]},
    {"smiles": "O=c1cc(-c2ccc(O)c(O)c2)oc2cc(O)cc(O)c12", "note": "[Luteolin, luteolin]", "values": [
      {"measurement": "Fold change", "setting": "NPY5R; in two cell lines tested, amount tested 1 uM, 10 uM", "result": "1.56 (in two cell lines tested)"}
    ]}
  ]
}
